Numbering of substitutions follows the chain as printed. Values after ≈ are worked out from the molar mass of the structure shown. Read-outs that look alike come from different tables or passages of the source.
Tests used:
Water solubility = assay type: physicochemical; conditions: 0.1 M HCl, pH 1.00, 25° C., read-out: Ws
Description: BA were suspended in 100 ml of 0.1 M HCl, pH 1.00, and the saturated solutions were transferred to a thermostat-equipped water bath maintained at 25° C. After incubation for 1 week, the solutions were filtered on a Millipore filter ([…]), and the concentration of BA was measured by HPLC-ESMS/MS as reported below.

[1] = Lipophilicity, 1-octanol/water partition coefficient (shake-flask); assay type: physicochemical; conditions: pH 8.00, ionized BA
Description: The experiments were carried out on 1 mM initial bile salt solution buffered at pH 8.00 with 0.1 M potassium phosphate buffer to ensure complete ionization of the BA. BA concentration in the water phase before and after partition in 1-octanol was measured by HPLC-ESMS/MS as reported below.

[2] = Critical micellar concentration (surface tension / dye solubilization); assay type: physicochemical; conditions: for CMC: BA sodium salts in 0.1 M NaCl, 25° C.; for STCMC: surface tension at CMC
Description: In the first method, the surface tension was performed by maximum bubble-pressure method using a Sensadyne 6000 tensiometer (Chem-Dyne Research Corp., Milwaukee, Wis.). The surface tension of aqueous solutions at various concentrations (range 0.1-100 mM) of the BA sodium salts in 0.1 M NaCl was measured at 25° C. The surface tension values were plotted against the logarithm of the bile salt concentration; the regression lines corresponding to the two parts of the curve (monomeric and micellar phases) were calculated using the method of least squares. The critical micellar concentration (CMC) value (mM) was obtained by the intersection of the two lines.
The second method is based on the fact that some dyes, specifically Orange OT ([…]), are almost insoluble in water but dissolve in solutions with micellar aggregates that incorporate them; thus, the intensity of color of the solution increases with bile salt concentration (after CMC achievement). The amount of dye solubilized in relation to bile salt concentration was determined spectrophotometrically.
For each bile acid, various solution at different concentrations, between 50 mM and 0.1 mM with appropriate dilutions, were incubated under stirring at room temperature for 3 days with an excess of Orange OT. Then all the solutions were centrifuged and filtered through a 0.22 μm Millipore fiiter (Millipore Corp., Bedford, Mass.).

[3] = as above; assay type: physicochemical
TGR5 [4] = biological target: T1, TGR5 (Homo sapiens, UniProt Q8TDU6); experiment: TGR5 activity: cAMP in hTGR5 CHO-k1 cells; assay type: cell-based; parameters: expressed in transfected cells; host or cells: CHO-k1; conditions: for Emax: 0.5 h, read-out: hTGR5 CHO Efficacy; for EC50: cAMP
T1 sequence (Q8TDU6 1-330): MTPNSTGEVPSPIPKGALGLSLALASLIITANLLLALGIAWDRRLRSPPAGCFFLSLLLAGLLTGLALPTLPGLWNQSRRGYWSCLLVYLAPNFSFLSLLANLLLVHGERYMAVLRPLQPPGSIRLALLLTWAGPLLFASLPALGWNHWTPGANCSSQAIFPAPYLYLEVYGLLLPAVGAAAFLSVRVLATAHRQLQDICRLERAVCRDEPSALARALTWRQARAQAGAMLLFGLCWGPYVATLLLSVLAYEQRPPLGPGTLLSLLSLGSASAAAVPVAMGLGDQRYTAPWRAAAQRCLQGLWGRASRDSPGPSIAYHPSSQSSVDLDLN

mTGR5 = biological target: T2, mTGR5 (Mus musculus, UniProt Q80SS6); experiment: TGR5 activity: cAMP in mTGR5 CHO-Pi10 clone 4 cells; assay type: cell-based; conditions: for Emax: 0.5 h, read-out: (mTGR5 CHO) Efficacy
T2 construct: expressed in transfected cells; host or cells: CHO-Pi10 clone 4
T2 sequence (Q80SS6 1-329): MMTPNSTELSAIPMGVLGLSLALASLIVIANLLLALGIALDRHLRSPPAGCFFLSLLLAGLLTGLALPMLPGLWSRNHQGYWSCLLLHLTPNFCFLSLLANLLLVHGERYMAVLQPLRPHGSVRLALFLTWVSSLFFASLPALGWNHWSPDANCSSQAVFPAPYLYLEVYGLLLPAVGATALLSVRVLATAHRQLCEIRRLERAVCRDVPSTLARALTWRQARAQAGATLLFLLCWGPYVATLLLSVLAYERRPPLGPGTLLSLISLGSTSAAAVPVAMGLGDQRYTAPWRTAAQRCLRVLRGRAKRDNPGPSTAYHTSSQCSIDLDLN

[5] = biological target: T3, mouse glutathione transferase-tagged FXR-LBD (Mus musculus, UniProt Q60641); experiment: FXR AlphaScreen coactivator recruitment assay (mouse); assay type: biochemical; conditions: mouse FXR-LBD, value in parentheses; for EC50: read-out: (mFXR) EC50
T3 construct: mouse glutathione transferase-tagged FXR-LBD (generated in-house); made in house
T3 sequence (Q60641 264-488 limits assumed): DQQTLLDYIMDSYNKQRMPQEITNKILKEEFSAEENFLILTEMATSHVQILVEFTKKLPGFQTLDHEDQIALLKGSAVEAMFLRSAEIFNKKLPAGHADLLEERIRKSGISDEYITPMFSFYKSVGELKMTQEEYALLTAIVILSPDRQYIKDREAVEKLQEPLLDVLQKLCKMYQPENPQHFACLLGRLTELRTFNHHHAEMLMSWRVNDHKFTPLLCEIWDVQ
Description: (§1) Activation of the FXR receptor was determined using a recruitment coactivator assay, namely AlphaScreen technology. The assays were performed using human glutathione transferase-tagged FXR-LBD (Life Technologies, USA) and mouse glutathione transferase-tagged FXR-LBD (generated in-house). Briefly, assays were conducted in white, low-volume, 384-well OptiPlate using a final volume of 25 μL containing 10 nM glutathione transferase-tagged FXR-LBD protein and 30 nM biotinylated Src-1 peptide. The stimulation was carried out with different BA concentrations for 30 minutes at 25° C. […] Dose-response curves were performed in triplicate and Z′ factor was used to validate the robustness of the assay.

TGR5 [6] = biological target: T1, TGR5; experiment: TGR5 activity: intracellular cAMP levels, NCI-H716 cells (HTR-FRET); assay type: cell-based; parameters: endogenous in cells; host or cells: NCI-H716; conditions: for Emax: read-out: TGR5 (NCI-H716) Efficacy; for EC50: cAMP
Description: Activation of TGR5 was assessed by measuring the level of cAMP using an HTR-FRET assay. Thus, NCI-H716 cells were cultured on 96-well plates coated with Matrigel (Corning, USA) (0.75 mg/ml) in DMEM supplemented with 10% FCS, 100 units/ml penicillin, and 100 μg/ml streptomycin sulphate. […] The level of intracellular cAMP was determined with Lance kit. Z′ factor was used to validate assays.

bovine serum albumin = bovine serum albumin (Bos taurus, UniProt P02769); experiment: Albumin binding by equilibrium dialysis; assay type: in vitro ADME; conditions: 5% bovine serum albumin saline solution, 25° C.
Sequence of bovine serum albumin (P02769 25-607): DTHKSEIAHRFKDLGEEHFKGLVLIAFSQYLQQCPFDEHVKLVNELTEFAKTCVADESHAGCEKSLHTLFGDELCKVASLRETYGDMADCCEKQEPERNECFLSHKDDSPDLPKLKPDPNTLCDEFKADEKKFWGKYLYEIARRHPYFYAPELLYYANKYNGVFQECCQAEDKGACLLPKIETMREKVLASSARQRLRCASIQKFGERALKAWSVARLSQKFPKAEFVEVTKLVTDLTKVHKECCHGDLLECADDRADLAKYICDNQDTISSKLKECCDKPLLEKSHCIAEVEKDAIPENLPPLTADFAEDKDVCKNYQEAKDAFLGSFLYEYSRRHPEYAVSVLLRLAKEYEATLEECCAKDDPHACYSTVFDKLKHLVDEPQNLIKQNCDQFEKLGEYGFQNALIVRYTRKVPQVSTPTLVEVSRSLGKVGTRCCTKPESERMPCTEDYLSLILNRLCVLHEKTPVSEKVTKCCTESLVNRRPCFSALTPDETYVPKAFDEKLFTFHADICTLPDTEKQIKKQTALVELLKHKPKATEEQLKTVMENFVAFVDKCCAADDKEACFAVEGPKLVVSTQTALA
Description: BA was dissolved at a concentration of […] in 5% bovine serum albumin saline solution and left to stand for 24 hours at 25° C. Two milliliters of this solution was dialyzed in cellulose sacs with a molecular weight cut-off of 12-14 kDa (Spectra/Por; Spectrum Medical Industries Inc., Rancho Dominguez, Calif.) against 25 ml of saline solution. The system was equilibrated by mechanical shaking for 72 hours at 25° C. BA concentrations in the starting solution and in the dialyzed solution were determined by HPLC-ES-MS/MS as reported below.

[7] = biological target: T4, human glutathione transferase-tagged FXR-LBD (Homo sapiens, UniProt Q96RI1); experiment: FXR AlphaScreen coactivator recruitment assay (human); assay type: biochemical; parameters: Emax: dose or concentration left out as unconfirmed; conditions: for EC50: human FXR-LBD, AlphaScreen, read-out: hFXR EC50; for Emax: read-out: hFXR Efficacy;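 for hFXR Efficacy: CDCA at 50 µM taken as 100%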
T4 construct: human glutathione transferase-tagged FXR-LBD (Life Technologies, USA); purchased Life Technologies, USA
T4 sequence (Q96RI1 262-486 limits assumed): T3 sequence (Q60641 264-488 limits assumed) with D7H, Y8F, S46N, I50V, A95S, A98S, K107N, V125I, M174I, Y175H
Description: as §1

[8] = simulated gastric fluid, thermodynamic from solid
[9] = mTGR5 CHO cells, value in parentheses

## CC[C@H]1[C@@H](O)C2C3CC[C@H]([C@H](C)CC(F)(F)C(=O)O)[C@@]3(C)[C@@H](O)CC2[C@@]2(C)CC[C@@H](O)C[C@@H]12 (stereo partly drawn) [Compound 3, 3α,7α,12α-Trihydroxy-6α-ethyl-23,23-gemdifluoro-5β-cholan-24-oic acid]
Water solubility; [8]
  solubility thermodynamic at 1 week: 225 µM (≈ 106 µg/mL)
pKa
  pKa: 1.1
[1]
  LogPA−: 1.0
[2]
  CMC: 10 mM
[3]
  CMpH: 2.7

## CC[C@H]1[C@@H](O)C2C3CC[C@H]([C@H](C)C[C@@H](CO)C(=O)O)[C@@]3(C)[C@@H](O)CC2[C@@]2(C)CC[C@@H](O)C[C@@H]12 (stereo partly drawn) [Compound 4, 3α,7α,12α-Trihydroxy-6α-ethyl-23(A)-hydroxymethyl-5β-cholan-24-oic acid]
TGR5 [4]; CHO
  Emax: 99 ± 1.4%
TGR5 [4]; hTGR5 CHO cells
  EC50: 4.65 ± 0.5 µM
mTGR5; CHO
  Emax: 102%
mTGR5; [9]
  EC50: 1.3 µM
[5]
  EC50: > 150 µM
Water solubility; [8]
  solubility thermodynamic at 1 week: 3200 µM (≈ 1490 µg/mL)
pKa
  pKa: 4.36
[1]
  LogPA−: −0.2
TGR5 [6]; NCI-H716, 1 h
  Emax: 77 ± 10%
TGR5 [6]; NCI-H716 cells
  EC50: 7.5 ± 5 µM
Bovine serum albumin
  Albumin binding (%): 55%
[2]
  CMC: 5 mM
[7]
  EC50: 80 ± 30 µM
  Emax: 20 ± 2%
[3]
  CMpH: 4.5

## CC[C@H]1[C@@H](O)[C@@H]2[C@H](C[C@H](O)[C@]3(C)[C@@H]([C@H](C)C[C@H](F)C(=O)O)CC[C@@H]23)[C@@]2(C)CC[C@@H](O)C[C@@H]12 [Compound 8, 3α,7α,12α-Trihydroxy-6α-ethyl-23(S)-fluoro-5β-cholan-24-oate]
TGR5 [4]; hTGR5 CHO cells, Ref. LCA 100% at 10 μM
  Emax: 103 ± 2%
TGR5 [4]; hTGR5 CHO cells
  EC50: 0.5 ± 0.1 µM
mTGR5; [9]
  Emax: 100%
  EC50: 0.78 µM
[5]
  EC50: 59.5 µM
[5]; read-out: (mFXR) Efficacy
  Emax: 47%
Water solubility; [8]
  solubility thermodynamic at 1 week: 971 µM (≈ 441 µg/mL)
pKa
  pKa: 2.82
[1]
  LogPA−: 0.01
TGR5 [6]; 1 h, NCI-H716 cells, Ref. LCA 100% at 10 μM
  Emax: 97 ± 1.7%
TGR5 [6]; NCI-H716 cells
  EC50: 7 ± 3 µM
Bovine serum albumin
  Albumin binding (%): 84%
[2]
  CMC: 6 mM
[7]
  EC50: 5.6 ± 1 µM
  Emax: 113 ± 3%
[3]
  CMpH: 3.6

## C[C@H](CCC(=O)NCC(=O)O)[C@H]1CC[C@H]2[C@@H]3[C@H](O)C[C@@H]4C[C@H](O)CC[C@]4(C)[C@H]3C[C@H](O)[C@]12C [GCA, reference compound]
Water solubility
  solubility thermodynamic at 1 week: 32 µM (≈ 14.9 µg/mL)
pKa
  pKa: 3.9
[1]
  LogPA−: −0.4
Bovine serum albumin
  Albumin binding (%): 65%
[2]
  CMC: 8 mM
  STCMC: 48.8 Dyne/cm
[3]
  CMpH: 6.3

## C[C@H](CCC(=O)NCC(=O)O)[C@H]1CC[C@H]2[C@@H]3[C@H](O)C[C@@H]4C[C@H](O)CC[C@]4(C)[C@H]3CC[C@]12C [GCDCA, reference compound]
Water solubility
  solubility thermodynamic at 1 week: 7 µM (≈ 3.15 µg/mL)
pKa
  pKa: 3.9
[1]
  LogPA−: 0.4
Bovine serum albumin
  Albumin binding (%): 85%
[2]
  CMC: 2 mM
  STCMC: 45.2 Dyne/cm
[3]
  CMpH: 6.4

## C[C@H](CC(=O)O)[C@H]1CC[C@H]2[C@@H]3[C@H](O)C[C@@H]4C[C@H](O)CC[C@]4(C)[C@H]3CC[C@]12C [Nor-CDCA, 24-nor-CDCA, reference compound]
Water solubility
  solubility thermodynamic at 1 week: 23 µM (≈ 8.71 µg/mL)
pKa
  pKa: 5
[1]
  LogPA−: 0.5
Bovine serum albumin
  Albumin binding (%): 95%
[2]
  CMC: 20 mM
[3]
  CMpH: 7.9

## CC[C@H]1[C@@H](O)C2C3CC[C@H]([C@H](C)CCC(=O)O)[C@@]3(C)CCC2[C@@]2(C)CC[C@@H](O)C[C@@H]12 (stereo partly drawn) [Ref. Cmpd. B, reference compound]
Water solubility; [8]
  solubility thermodynamic at 1 week: 9 µM (≈ 3.79 µg/mL)
pKa
  pKa: 5
[1]
  LogPA−: 2.5
Bovine serum albumin
  Albumin binding (%): 96%
[2]
  CMC: 2.9 mM
  STCMC: 48.8 Dyne/cm
[3]
  CMpH: 7.2

From patent publication US10800807B2, “TGR5 modulators and methods of use thereof” (Intercept Pharmaceuticals, Inc., priority 2015, dated 2020)
